Test results published in the NIST ThermoML archive (doi:10.1016/j.fluid.2017.03.021).

Settings: 101.33 kPa, Liquid, Vibrating tube method

CCCCCC[n+]1ccn(C)c1.O=S(=O)([N-]S(=O)(=O)C(F)(F)F)C(F)(F)F
Settings | mass density [kg/m3]
293.15 K | 1377.1
298.15 K | 1372.5
303.15 K | 1367.8
308.15 K | 1363.5
313.15 K | 1358.7
318.15 K | 1354.3
323.15 K | 1349.6
328.15 K | 1345.2
333.15 K | 1340.5
338.15 K | 1336.2
343.15 K | 1331.6
